Data reported in EP0721774A2, “Anti-microbial compositions” (UNILEVER N.V., priority 1994, dated 1996).

How the values were obtained:
[1] = test system: S.mutans; assay: Minimum inhibitory concentration (MIC), spot dilution on lawned SDM agar plates; format: cell-based, Streptococcus mutans
Protocol: (§1) The minimum inhibitory concentrations (MICs) of these peptides were determined as follows: Organisms were subcultured from BHIS agar into BHI broth and incubated at 37°C for 2 days. They were then diluted 1/100 in fresh broth and flooded onto pre-dried SDM agar plates. Excess culture was removed by pipetting. Plates were then allowed to dry at room temperature. The various synthesised peptides were dissolved in sterile water at a concentration of 1 %. Doubling dilutions, in water, were carried out down to 0.03 %. 15 µl of each dilution was spotted onto the lawned cultures, allowed to dry and then the plates were incubated at 37°C for 2 days. Plates were then read for zones of inhibition. The MIC was taken as the lowest dilution still causing visible growth inhibition.
(§2) All organisms were routinely grown on supplemented Brain Heart Infusion agar (Difco) and when appropriate subcultured into Brain Hearth Infusion broth (Difco). For MIC assays a chemically defined solid medium (SDM) was used^(5).
The organisms used were the following: Streptococcus mutans strains were clinical isolates, from the plaque of panellists in oral ecology studies. […] SM11060 belonged to serotype f and SM10919 belonged to serotype g. Strain SMB13 (serotype d) was supplied by PHLS, Porton Down.

[2] = test system: S.sanguis; assay: as above; format: cell-based, Streptococcus sanguis
Protocol: as §1, §2
Streptococcus sanguis strains were all clinical isolates from the plaque of panellists in ongoing oral ecology studies.

[3] = test system: Lactobacilli; assay: as above; format: cell-based
Protocol: as §1, §2
Lactobacilli were from the in house Colworth Microbial Culture Collection. SB115 and SB116 were L.casei var. rhamnosus, SB82 had been classified as L.plantarum, SB83 and SB85 were Lactobacillus sp. and SB 9 was L.casei.

[4] = test system: S.salivarius; assay: as above; format: cell-based, Steptococcus salivarius
Protocol: as §1, §2
Steptococcus salivarius strans were all wild plaque isolates from oral ecology studies.

[5] = test system: Actinomyces; assay: as above; format: cell-based
Protocol: as §1, §2
Actinomyces 12/2, 69A and 41A were plaque isolates from oral ecology studies.

[6] = test system: Candida; assay: as above; format: cell-based
Protocol: as §1, §2
Candida strains 83 and 41 were isolated from oral ecology studies.

[7] = test system: C. albicans; conditions: compared among histatins -1, -3 and -5; cited from earlier work

Substance: Histatin-5
- MIC ([1]; strain SM1dg): 1.0%
- MIC ([1]; strain SM24dg): 1.0%
- MIC ([1]; strain SM28B): 1.0%
- MIC ([1]; strain SM44A): 0.5%
- MIC ([1]; strain SM84C): 1.0%
- MIC ([1]; strain SM148dg): 0.5%
- MIC ([1]; strain SM189): 0.5%
- MIC ([1]; strain SM211): 0.25%
- MIC ([1]; strain SM6715): 0.5%
- MIC ([1]; strain SM10449): 0.25%
- MIC ([1]; strain SMNW1): 1.0%
- MIC ([1]; strain SMNW6): 1.0%
- MIC ([1]; strain SMNW10): 0.5%
- MIC ([2]; strain 6/9): growth stimulated
- MIC ([2]; strain 10/23): growth stimulated
- MIC ([2]; strain SS209): growth stimulated
- MIC ([3]; strain SB9 (L.casei)): 1.0%
- MIC ([3]; strain SB81): 0.125%
- MIC ([3]; strain SB82 (L.plantarum)): 0.125%
- MIC ([3]; strain SB116 (L.casei var. rhamnosus)): 1.5%
- MIC ([4]; strain 2/7): growth stimulated
- MIC ([4]; strain 2/27): growth stimulated
- MIC ([4]; strain 14/9): growth stimulated
- MIC ([5]; strain 10A): 1.0%
- MIC ([5]; strain 11A): 0.5%
- MIC ([5]; strain 16A): growth stimulated
- MIC ([5]; strain 41A): 1.0%
- MIC ([5]; strain 69A): growth stimulated
- MIC ([5]; strain 71A): 0.5%
- MIC ([6]; strain 41): >1.0%
- MIC ([6]; strain 83): >1.0%
- ability to kill the pathogenic yeast C. albicans [7]: most effective
